Test results taken from ChEMBL document CHEMBL1201862, “PubChem BioAssay data set” (2004).
“And” between values parts separate entries of the source, which are not always exact repeats. Equal entries are not always repeated.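 Protocol summary: plate cells (96-well), add compound at 5 concentrations, incubate 48 h, interpolate endpoints linearly. GI50 = concentration required for 50% inhibition of growth.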 The source made the active and inactive calls. No stated cut-off is given here; in the data, active = GI50 up to about 1.1 µM and inactive = higher.

Columns and labels:
Experiment in all cases: DTP human tumour cell line panel, 48 h
786-0 = system: 786-0
T47D = system: T47D
M14 = system: M14
HL-60 = system: HL-60
RXF 393 = system: RXF 393
Malme-3M = system: Malme-3M
HT-29 = system: HT-29
DU-145 = system: DU-145
HCT-15 = system: HCT-15
SK-MEL-28 = system: SK-MEL-28
A498 = system: A498
LOX IMVI = system: LOX IMVI
HOP-92 = system: HOP-92
HCT-116 = system: HCT-116
HOP-62 = system: HOP-62
TK-10 = system: TK-10
OVCAR-4 = system: OVCAR-4
SN12C = system: SN12C
COLO 205 = system: COLO 205
SW-620 = system: SW-620
MDA-MB-435 = system: MDA-MB-435
SK-MEL-2 = system: SK-MEL-2
U-251 = system: U-251
ACHN = system: ACHN
RPMI-8226 = system: RPMI-8226
UACC-62 = system: UACC-62
CCRF-CEM = system: CCRF-CEM
OVCAR-5 = system: OVCAR-5
SF-295 = system: SF-295
SNB-19 = system: SNB-19
EKVX = system: EKVX
NCI/ADR-RES = system: NCI/ADR-RES
MOLT-4 = system: MOLT-4
K562 = system: K562
UACC-257 = system: UACC-257
NCI-H226 = system: NCI-H226
NCI-H522 = system: NCI-H522
CAKI-1 = system: CAKI-1
SK-MEL-5 = system: SK-MEL-5
OVCAR-8 = system: OVCAR-8
NCI-H460 = system: NCI-H460
SF-539 = system: SF-539
Hs-578T = system: Hs-578T
A549 = system: A549
PC-3 = system: PC-3
MDA-MB-231 = system: MDA-MB-231
SR = system: SR
MDA-N = system: MDA-N
SNB-75 = system: SNB-75
HCC 2998 = system: HCC 2998
OVCAR-3 = system: OVCAR-3
SF-268 = system: SF-268
BT-549 = system: BT-549
NCI-H23 = system: NCI-H23
IGROV-1 = system: IGROV-1
MCF7 = system: MCF7
SK-OV-3 = system: SK-OV-3
KM12 = system: KM12

O=C(O)C1C(=O)Oc2c(cccc2[N+](=O)[O-])C1O (stereo not drawn)
GI50 (786-0): > 100 µM (inactive) | GI50 (T47D): > 100 µM (inactive) | GI50 (M14): > 100 µM (inactive) | GI50 (HL-60): > 100 µM (inactive) | GI50 (RXF 393): > 100 µM (inactive) | GI50 (Malme-3M): > 100 µM (inactive) | GI50 (HT-29): > 100 µM (inactive) | GI50 (DU-145): > 100 µM (inactive) | GI50 (HCT-15): > 100 µM | GI50 (SK-MEL-28): > 100 µM (inactive) | GI50 (A498): > 100 µM (inactive) | GI50 (LOX IMVI): > 100 µM (inactive) | GI50 (HOP-92): > 100 µM (inactive) | GI50 (HCT-116): > 100 µM (inactive) | GI50 (HOP-62): > 100 µM (inactive) | GI50 (TK-10): > 100 µM (inactive) | GI50 (OVCAR-4): > 100 µM (inactive) | GI50 (SN12C): > 100 µM (inactive) | GI50 (COLO 205): > 100 µM (inactive) | GI50 (SW-620): > 100 µM (inactive) | GI50 (MDA-MB-435): > 100 µM (inactive) | GI50 (SK-MEL-2): > 100 µM (inactive) | GI50 (U-251): > 100 µM (inactive) | GI50 (ACHN): > 100 µM (inactive) | GI50 (RPMI-8226): > 100 µM (inactive) | GI50 (UACC-62): > 100 µM (inactive) | GI50 (CCRF-CEM): > 100 µM (inactive) | GI50 (OVCAR-5): > 100 µM (inactive) | GI50 (SF-295): > 100 µM (inactive) | GI50 (SNB-19): > 100 µM (inactive) | GI50 (EKVX): > 100 µM (inactive) | GI50 (NCI/ADR-RES): > 100 µM (inactive) | GI50 (MOLT-4): > 100 µM (inactive) | GI50 (K562): > 100 µM (inactive) | GI50 (UACC-257): > 100 µM (inactive) | GI50 (NCI-H226): > 100 µM (inactive) | GI50 (NCI-H522): > 100 µM (inactive) | GI50 (CAKI-1): > 100 µM (inactive) | GI50 (SK-MEL-5): > 100 µM (inactive) | GI50 (OVCAR-8): > 100 µM (inactive) | GI50 (NCI-H460): > 100 µM (inactive) | GI50 (SF-539): > 100 µM (inactive) | GI50 (Hs-578T): > 100 µM (inactive) | GI50 (A549): > 100 µM (inactive) | GI50 (PC-3): > 100 µM (inactive) | GI50 (MDA-MB-231): > 100 µM (inactive) | GI50 (SR): > 100 µM (inactive) | GI50 (MDA-N): > 100 µM (inactive) | GI50 (SNB-75): > 100 µM (inactive) | GI50 (HCC 2998): > 100 µM (inactive) | GI50 (OVCAR-3): > 100 µM (inactive) | GI50 (SF-268): > 100 µM (inactive) | GI50 (BT-549): > 100 µM (inactive) | GI50 (NCI-H23): > 100 µM (inactive) | GI50 (IGROV-1): > 100 µM (inactive)

c1ccc2[nH]c(-c3cscn3)nc2c1 [THIABENDAZOLE]
GI50 (786-0): > 100 µM (inactive) | GI50 (T47D): > 100 µM (inactive) | GI50 (M14): > 100 µM (inactive) | GI50 (HL-60): > 100 µM (inactive) | GI50 (Malme-3M): > 100 µM (inactive) | GI50 (HT-29): > 100 µM (inactive) and 77.1 µM (inactive) | GI50 (DU-145): > 100 µM (inactive) | GI50 (HCT-15): > 100 µM | GI50 (MCF7): > 100 µM (inactive) | GI50 (SK-MEL-28): > 100 µM (inactive) | GI50 (A498): > 100 µM (inactive) | GI50 (LOX IMVI): > 100 µM (inactive) | GI50 (HOP-92): > 100 µM (inactive) | GI50 (SK-OV-3): > 100 µM (inactive) | GI50 (HCT-116): > 100 µM (inactive) | GI50 (TK-10): > 100 µM (inactive) | GI50 (OVCAR-4): > 100 µM (inactive) | GI50 (SN12C): > 100 µM (inactive) | GI50 (COLO 205): > 100 µM (inactive) | GI50 (SW-620): > 100 µM (inactive) | GI50 (KM12): > 100 µM (inactive) | GI50 (MDA-MB-435): 74.3 µM (inactive) and 44.4 µM (inactive) | GI50 (SK-MEL-2): > 100 µM (inactive) | GI50 (U-251): > 100 µM (inactive) | GI50 (ACHN): > 100 µM (inactive) | GI50 (UACC-62): > 100 µM (inactive) | GI50 (CCRF-CEM): > 100 µM (inactive) | GI50 (OVCAR-5): > 100 µM (inactive) | GI50 (SF-295): > 100 µM (inactive) | GI50 (SNB-19): > 100 µM (inactive) | GI50 (EKVX): > 100 µM (inactive) | GI50 (NCI/ADR-RES): > 100 µM (inactive) | GI50 (MOLT-4): > 100 µM (inactive) | GI50 (K562): > 100 µM (inactive) and 83.6 µM (inactive) | GI50 (UACC-257): > 100 µM (inactive) | GI50 (NCI-H226): > 100 µM (inactive) | GI50 (NCI-H522): > 100 µM (inactive) | GI50 (SK-MEL-5): > 100 µM (inactive) | GI50 (OVCAR-8): > 100 µM (inactive) | GI50 (NCI-H460): > 100 µM (inactive) and 54 µM (inactive) | GI50 (SF-539): > 100 µM (inactive) | GI50 (Hs-578T): > 100 µM (inactive) | GI50 (A549): > 100 µM (inactive) | GI50 (PC-3): > 100 µM (inactive) | GI50 (MDA-MB-231): > 100 µM (inactive) | GI50 (MDA-N): 50.4 µM (inactive) | GI50 (SNB-75): > 100 µM (inactive) | GI50 (HCC 2998): > 100 µM (inactive) | GI50 (OVCAR-3): > 100 µM (inactive) | GI50 (SF-268): > 100 µM (inactive) | GI50 (BT-549): > 100 µM (inactive) | GI50 (NCI-H23): > 100 µM (inactive) | GI50 (IGROV-1): > 100 µM (inactive)
